Test results taken from patent publication US11396497B2, “Proteasome inhibitors” (New Mexico Tech University Research Park Corporation, priority 2018, dated 2022).
Read-outs that look alike come from different tables or passages of the source.

Tests used:
Jurkat cells [1] = experiment: Cell cycle assay (flow cytometry); format: cell-based, human
Experimental: Vybrant® DyeCycle™ Orange Stain was used for the cell cycle assay. The amount of fluorescence of DNA was used as a relative measure of a cell's stage in the cell cycle. 500,000 Jurkat cells were added to wells on a 24 well microtiter plate in 1 mL of supplemented RPMI media. The cells were then treated with Compound 1 (TABLE 2). Using the cells treated for 12 and 24 hours, stained DNA fluorescence was measured via flow cytometry. The cells were taken from each well, pelleted briefly, aspirated, resuspended in 300 μL of 2 μL/mL Vybrant® DyeCycle™ Orange Stain, incubated at 37° C. for 15 minutes, and analyzed by flow cytometry. Selecting whole cells based on forward and side scatter, stained DNA fluorescence was excited at 488 nm and measured at an emission wavelength of 585 nm, using amount of fluorescence as a means of distinguishing between populations of cells. Populations were identified as G1 for the peak associated with the lowest amount of fluorescence, S phase for increased fluorescence appearing as a shoulder off of the G1 peak, and G2/M for approximately 2 times the fluorescence as the G1 peak. Measurements were taken in biological triplicate and confirmed in technical triplicate.

Jurkat cells [2] = experiment: Apoptosis assay (Annexin V-FITC, flow cytometry); format: cell-based, human
Experimental: Apoptosis assay: 1 mL of Jurkat cells, at a density of 500,000 cells per milliliter, was added to 12 wells of a 24 well microtiter plate. Cells were treated immediately using a serial dilution of the synthesized proteasome inhibitors, the benzyl ester of Cystargolide B and the belactosin-cystargolide hybrid molecule. 10 μM Paclitaxel and 0.2 μg/mL Doxorubicin hydrochloride were used as positive apoptosis controls and non-treated cells were used as a negative control. The cells were then incubated for 24 h at 37° C. and 5% CO2. The following day, Annexin V-FITC conjugate was used to assay for the expression of phosphatidyl serine on the […] of the cellular membrane. The cells were briefly pelleted, aspirated, and resuspended in 300 μL of a reaction mixture containing 0.2 μL/mL of the Annexin V FITC solution, 2 mM CaCl2 to enable binding, and 2 μg/mL propidium iodide as an indicator of cell permeability. Each sample was incubated at 37° C. for 20 minutes, and then analyzed by flow cytometry. Single, whole cells were selected based on the forward and the side-scatter. With an excitation of 488 nm Annexin V-FITC binding was identified using FL1 533 nm emission. Propidium iodide staining was selected based on FL2 585 nm emission. […] Measurements were taken in biological triplicate for each sample, and the results were confirmed in technical triplicate.

[3] = biological target: T1, ChT-L activity of 26S proteasomes in intact MCF-7 cells (Homo sapiens, UniProt P28074); experiment: Cell infiltration of PIs: proteasome inhibition in intact MCF7 cells; format: cell-based; details: intact MCF-7 cells treated, washed, lysed
T1 construct: endogenous in cells; host or cells: MCF7 cells (treated intact, then lysed)
T1 sequence (P28074 60-263): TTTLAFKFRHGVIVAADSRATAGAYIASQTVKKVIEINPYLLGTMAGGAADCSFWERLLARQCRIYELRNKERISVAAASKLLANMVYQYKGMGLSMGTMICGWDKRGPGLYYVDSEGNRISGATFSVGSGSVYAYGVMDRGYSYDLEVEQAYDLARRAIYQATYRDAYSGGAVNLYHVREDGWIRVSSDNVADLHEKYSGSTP
Experimental: 100 μL MCF7 cells at a concentration of 500,000 cells/mL were added to a 96 well microtiter plate and incubated overnight at 37° C. and 5% CO2 to allow cells to adhere at 100% confluency. The cells were treated and then incubated for at 37° C. and 5% CO2 for 1 hour as a standard time to allow for drug infiltration. […] The plate was rocked on ice for 1 hr and then 90 μL of cell lysate was transferred to a black 96 well microtiter plate. 10 μL of lysis buffer was added to the top of all wells containing treated cells and one set of control wells. 10 μL of 1 mM of compound 8 was added to the second set of control wells as a positive control for proteasome inhibition. The plate was then incubated at 37° C. for 15 minutes to allow for control drug binding. Chymotrypsin-like activity was then measured by adding 10 μL of 100 μM Suc-LLVY-AMC in lysis buffer to each well and then incubating for 1 h at 37° C. […] Standard deviation for cell infiltration was calculated by propagating the error from the two IC50 values.
The difference between proteasome inhibition within intact versus lysed cells was evaluated as a representative measure of PIs ability to infiltrate cells and access intracellular proteasomes. […] Assays were performed in biological triplicate, and the data points are reported with the corresponding standard deviations. […]

MCF7 cells = experiment: MTT assay cytotoxicity MCF7; details: Homo sapiens
Experimental: (§1) The cells were incubated at 37° C. in a humidified atmosphere with 5% CO2.
(§2) 100 μL of cells were added to each well of a 96 well microtiter plate at a concentration of 4×10^4 cells/mL and incubated overnight to allow proper adhesion. (RPMI 8226 cells were plated at 4×10^5 cells/mL). The cells were treated with the panel of test compounds at a series of concentrations, along with vehicle control DMSO and untreated cells as controls. After 48 h incubation, 20 μL of MTT reagent (3-(4,5-dimethylthiazol-2-yl)-2,5-diphenyltetrazolium bromide) in PBS (5 mg/mL) was added to each well of the plates. The plate was incubated for 2 h at 37° C. For adherent cell lines, the media was removed from each well of the plate and the resulting formazan crystals dissolved in 100 μL of DMSO. For RPMI 8226 cells, 200 ul of DMF/SDS mix (50% DMF. 10% w/v SDS pH<4) was used to solubilize the formazan crystals. Optical density (OD) at 490 nm was measured using a microplate reader. Cells treated with 1 μM phenyl arsine oxide (PAO) served as a positive cell-killing control. Technical replicates of these assays were performed in biological quadruplicate, and the three best values were used for analysis in order to eliminate outliers. Data presented are the average IC50 value calculated from at least 3 technical replicates with the corresponding standard deviation.

[4] = biological target: T2, chymotrypsin-like activity of the 26S proteasome (Homo sapiens, UniProt P28074); experiment: Proteasome assay, chymotrypsin-like (ChT-L) activity, Suc-LLVY-AMC, Jurkat cell lysate; format: biochemical
T2 construct: endogenous in cells; host or cells: Jurkat (ATCC TIB-152, E6-1 clone) cell lysate
T2 sequence (P28074 60-263): T1 sequence (P28074 60-263)
Experimental: The lysate was stored at −80° C. until the sample was used for the proteasome assay.
The compounds were diluted with lysis buffer; 10 μL of the compound-containing solution was added to the test wells at ten times the final concentration. […] The results are reported as the average of at least 3 technical replicates of IC50 values for proteasome inhibition.

[5] = system: ubiquitinated proteins in MCF7 cells; experiment: Western blot of ubiquitinated proteins; format: cell-based, human
Experimental: The cells were incubated for 9.5 hrs at 37° C. and 5% CO2. After washing with PBS twice, cells were scraped, pelleted and lysed with CytoBuster™ Protein Extraction Reagent \ containing 10 μM compound 8, 10 μM Na3VO4, 0.017 mg/mL Aprotinin, 1 mM PMSF, and 1% Protease Inhibitor Cocktail. Thereafter 30 μg of protein in sample buffer (50 mM Tris-HCl, 2% SDS, 10% Glycerol, 1% β-mercaptoethanol, 12.5 mM EDTA, 0.02% Bromophenol Blue, pH 6.8) that had been boiled at 90° C. for 5 min, was electrophoresed using 6/8% SDS-PAGE, and the protein transferred to a […] PVDF membrane using a BioRad Trans-Blot® SD at 15 V for 17 minutes. The membrane was blocked with 1× casein buffer (Diluted 1:10 in water from casein blocking buffer 10×), and probed with either the polyclonal rabbit anti β-Actin (1:500) or the polyclonal rabbit anti-ubiquitin antibody (1:300), and stained with goat anti-rabbit IgG (H+L) HRP conjugate (1:3000) secondary antibodies. Antibody-recognized bands were visualized by a standard horseradish peroxidase chemiluminescent assay with an ECL kit.

MDA-MB-231 cells = experiment: MTT assay cytotoxicity MDA-MB-231; details: Homo sapiens
Experimental: as §1, §2

**Q.** How did the cell cycle arrest (Jurkat cells [1]) turn out when `CC[C@H](C)[C@@H]1C(=O)O[C@H]1C(=O)N[C@H](C(=O)N[C@H](C(=O)OCc1ccccc1)C(C)C)C(C)C` [Compound 8, Benzyl ((2R,3S)-3-((S)-sec-butyl)-4-oxooxetane-2-carbonyl)-L-valyl-L-valinate] was run?
**A.** cell cycle arrest in the G2/M phase

**Q.** What about the induction of apoptosis (Jurkat cells [2]) of the same compound?
**A.** induction of apoptosis

**Q.** And the “times more active than compound 1, proteasome inhibition in intact cells” value [3]?
**A.** approximately 10 times

**Q.** What about the IC50 (MCF7 cells; MCF7, 48 h, read-out: Cytotoxicity MCF7 IC50) of the same compound?
**A.** 1.41 ± 0.687 µM

**Q.** What about the IC50 (MCF7 cells; MCF7, read-out: Cytotoxicity MCF7 IC50) of the same compound?
**A.** 1.85 ± 0.261 µM

**Q.** What about the IC50 [4] of the same compound?
**A.** 0.0071 ± 0.0028 µM

**Q.** And the IC50 ([4]; Table 5, ± S.D., read-out: Proteasome Inhib. ChT-L IC50)?
**A.** 0.007 ± 0.000311 µM

**Q.** What about the “accumulation of ubiquitinated proteins” value [5] of the same compound?
**A.** accumulation of ubiquitinated proteins

**Q.** What about the IC50 (MDA-MB-231 cells; MDA-MB-231, 48 h, read-out: Cytotoxicity MDA-MB-231 IC50) of the same compound?
**A.** 0.359 ± 0.072 µM

**Q.** And the IC50 (MDA-MB-231 cells; MDA-MB-231, read-out: Cytotoxicity MDA-MB-231 IC50)?
**A.** 0.38 ± 0.0188 µM
